# Reference: patent publication US20250351832A1, “PHYTOCHEMICALS AS BIOPESTICIDES AND BIOSTIMULANTS” (KAY BEE BIO ORGANICS PVT. LTD., priority 2024, published 2025)
# Read-outs that look alike come from different tables or passages of the source.
# What was measured:
# Spodoptera litura [1] = settings: Spodoptera litura 3rd instar on cabbage plants, dose 1 ml/gm/lit. spray
# Mealy Bug [2] = settings: mealy bug on cotton plants, green house, dose 1 ml/gm/lit. spray
# Helicoverpa armigera [3] = settings: Helicoverpa armigera 3rd instar on chickpea plants, dose 1 ml/gm/lit. spray
# Thrips [4] = settings: thrips on cotton plants, greenhouse, dose 1 ml/gm/lit. spray
# Alternaria alternata [5] = assay: In vitro poisoned food technique against fungus (Ex. 20); assay type: cell-based; settings: poisoned food technique, PDA medium, dose 1 ml/gm/lit., after seven days
# Thrips [6] = settings: Thrips on cotton leaves; dose 1 ml/gm/lit.; 10 insects/treatment; 48 hrs after application
# Mealy Bug [7] = settings: Mealy Bug on cotton leaves, dose 1 ml/gm/lit., 48 Hrs.
# Mite [8] = settings: mite on okra plants, green house, dose 1 ml/gm/lit. spray
# Spodoptera litura [9] = settings: Spodoptera litura on castor leaves; dose 1 ml/gm/lit.; 10 insects/treatment; 72 hrs after application
# Spodoptera litura [10] = assay: whole plant or invertebrate; settings: 72 h
# Helicoverpa armigera [11] = settings: Helicoverpa armigera on okra fruits, dose 1 ml/gm/lit., 72 Hrs.
# tomato seedlings = assay: Response of tomato plants, greenhouse growth (Ex. 30); assay type: in vivo; settings: tomato seedlings, dose 1 ml/gm/lit
# chili seedlings = assay: Response of chili plants, greenhouse growth (Ex. 31); assay type: in vivo; settings: chili seedlings, dose 1 ml/gm/lit
# Mite [12] = settings: Dose 1 ml/gm/lit.
# [13] = cited from earlier work
# Aphid [14] = assay: whole plant or invertebrate; settings: 48 h
# Aphid [15] = settings: Dose 1 ml/gm/lit.
# Thrips [16] = assay: whole plant or invertebrate; settings: in Gossypium hirsutum, 48 h
# Aphid [17] = settings: Aphids on cotton plants, green house; dose 1 ml/gm/lit.; 10 insects/plant, 10 plants/treatment; 48 hrs
# Alternaria alternata [18] = assay: Alternaria leaf spot/blight on inoculated tomato plants (Ex. 28); assay type: in vivo; settings: tomato plants, Alternaria alternata; after 7 days; dose 1 ml/gm/lit
# [19] = 72 hrs, corrected for water control
# [20] = 48 hrs, corrected for water control
# [21] = 10 insects/treatment, 4 replications
# [22] = Table 13, descriptive, no test described
# [23] = read-out: % Corrected Mortality at 48 Hrs.
# [24] = read-out: % Mortality at 48 Hrs.
smiles,measurement,setting,value
CC12CCC(CC1=O)C2(C)C (stereo not shown) [Camphor],% Mortality at 72 Hrs.,Spodoptera litura [1]; 72 hrs after application,45.00%
same,% Corrected Mortality at 72 Hrs.,Spodoptera litura [1]; [19],42.11%
same,% Mortality at 48 Hrs.,Mealy Bug [2]; 48 hrs after application,67.50%
same,Total No. of dead insect at 48 Hrs.,Mealy Bug [2]; 48 hrs after application,67.50
same,% Corrected Mortality at 48 Hrs.,Mealy Bug [2]; [20],63.89%
same,% Mortality at 72 Hrs.,Helicoverpa armigera [3]; 72 hrs after application,55.00%
same,% Corrected Mortality at 72 Hrs.,Helicoverpa armigera [3]; [19],55.00%
same,% Mortality at 48 Hrs.,Thrips [4]; 48 hrs after application,42.50%
same,Total No. of dead insect at 48 Hrs.,Thrips [4]; 48 hrs after application,42.50
same,% Corrected Mortality at 48 Hrs.,Thrips [4]; [20],36.11%
same,Mean colony Diameter (mm),Alternaria alternata [5],60.00 mm
same,inhibition of growth at 1 mL or g/L,"Alternaria alternata [5]; vs untreated control, read-out: % Inhibition of growth",31.8%
same,Total No. of dead insect at 48 Hrs.,Thrips [6],4.50
same,Total No. of dead insect at 48 Hrs.,Mealy Bug [7]; [21],5.25
same,% Mortality at 48 Hrs.,Mealy Bug [7],52.50%
same,% Corrected Mortality at 48 Hrs.,Mealy Bug [7]; corrected for water control,50.00%
same,% Mortality at 48 Hrs.,Mite [8]; 48 hrs after application,65.00%
same,Total No. of dead insect at 48 Hrs.,Mite [8]; 48 hrs after application,65.00
same,% Corrected Mortality at 48 Hrs.,Mite [8]; [20],63.16%
same,Total No. of dead insect at 72 Hrs.,Spodoptera litura [9],4.25
same,mortality at 1 mL or g/L,Spodoptera litura [10]; read-out: % Corrected Mortality at 72 Hrs.,39.5%
same,mortality at 1 mL or g/L,Spodoptera litura [10]; read-out: % Mortality at 72 Hrs.,42.5%
same,Total No. of dead insect at 72 Hrs.,Helicoverpa armigera [11]; [21],6.00
same,% Mortality at 72 Hrs.,Helicoverpa armigera [11],60.00%
same,% Corrected Mortality at 72 Hrs.,Helicoverpa armigera [11]; corrected for water control,60.00%
same,Plant Height 5th Day,tomato seedlings; 5th day after application,6.34 cm
same,Stem Girth 5th Day,tomato seedlings; 5th day after application,1.90 mm
same,Plant Height 10th Day,tomato seedlings; 10th day after application,6.96 cm
same,Stem Girth 10th Day,tomato seedlings; 10th day after application,2.06 mm
same,Plant Height % Increase over pre on 10th Day,tomato seedlings; 10th day,27.94%
same,Stem Girth % Increase over pre on 10th Day,tomato seedlings; 10th day,53.50%
same,CCI 5th Day,tomato seedlings; 5th day after application,13.64
same,CCI % Increase over pre on 10th Day,tomato seedlings; 10th day,26.67%
same,Root Length (cm) 10th Day,tomato seedlings; 10th day,3.58 cm
same,CCI 10th Day,tomato seedlings; 10th day after application,14.82
same,Root Length % Increase over control,"tomato seedlings; 10th day, vs water control",7.76%
same,CCI 5th Day,chili seedlings; 5th day after application,11.80
same,Plant Height (cm) 5th Day,chili seedlings; 5th day after application,5.70 cm
same,CCI % Increase over pre on 10th Day,chili seedlings; 10th day,25.81%
same,Plant Height % Increase over pre on 10th Day,chili seedlings; 10th day,56.20%
same,Root Lenght (cm) 10th Day,chili seedlings; 10th day,3.47 cm
same,Stem Girth % Increase over pre on 10th Day,chili seedlings; 10th day,44.32%
same,CCI 10th Day,chili seedlings; 10th day after application,13.21
same,Plant Height (cm) 10th Day,chili seedlings; 10th day after application,6.30 cm
same,Root Lenght % Increase over control,"chili seedlings; 10th day, vs water control",26.68%
same,Total No. of dead insect at 48 Hrs.,"Mite [12]; 10 insects/treatment, 4 replications, okra leaves",6.75
same,% Corrected Mortality at 48 Hrs.,Mite [12]; 48 hrs,64.86%
same,Acaricidal Activity - Mode of action,[13]; [22],Deteriorating respiratory
same,Antifungal Activity - Mode of action,[13]; [22],Repel fungal infections
same,Antioxidant Activity - Mode of action,[13]; [22],Free radical scavenging
same,Bactericidal Activity - Mode of action,[13]; [22],"Inhibit microbial growth,"
same,Insecticidal Activities - Mode of action,[13]; [22],Strong contact toxicity
same,Nematicidal Activity - Mode of action,[13]; [22],Strong activity against
same,Virucidal Activity - Mode of action,[13]; [22],Control the spread of viral
same,Phytotonic Effect,"[13]; Table 13, effect on plants, descriptive",Strong
same,mortality at 1 mL or g/L,Aphid [14]; [23],52.9%
same,mortality at 1 mL or g/L,Aphid [14]; [24],60%
same,Total No. of dead insect at 48 Hrs.,"Aphid [15]; 10 insects/treatment, 4 replications, cotton leaves",5.75
same,% Corrected Mortality at 48 Hrs.,Aphid [15]; 48 hrs,51.43%
same,% Mortality at 48 Hrs.,Aphid [15]; 48 hrs,57.50%
same,mortality at 1 mL or g/L,Thrips [16]; [23],37.1%
same,mortality at 1 mL or g/L,Thrips [16]; [24],45%
same,Total No. of dead insect at 48 Hrs.,Aphid [17],60.00
same,% Disease reduction over Control,Alternaria alternata [18],46.28%
